Consider four compounds from patent publication US20230416330A1, “Optimized GIP Peptide Analogues” (Antag Therapeutics ApS, priority 2019, published 2023).

Like-named read-outs stand apart in the source and are kept apart here. Starred links: 1 amine or outer side, 2 acyl side, 3 side chain; linkers in the order of their positions; H or OH if unused. Non-standard residues stand in square brackets, D forms with d. Residues, ends and D or L forms follow the SMILES beside them. Groups on a side chain read outwards from the residue. *: point of attachment. C18 diacid = O=C(O)CCCCCCCCCCCCCCCCC(=O)*; C16 diacid = O=C(O)CCCCCCCCCCCCCCC(=O)*; γGlu = O=C(O)[C@H](CCC(=O)[*:2])N[*:1]; Glutaryl = O=C(CCCC(=O)[*:2])[*:1]; Nle = CCCC[C@H](N)C(=O)O; AEEA = NCCOCCOCC(=O)O; Aib = CC(C)(N)C(=O)O Bounds are passed on as bounds.

Series [1] deals with T1, human GIP receptor (Homo sapiens, UniProt P48546).
T1 construct: host or cells: HEK-293 cells, transient transfection (Lipofectamine 2000), cDNA in pCMV-Script vector
T1 sequence (P48546 22-466): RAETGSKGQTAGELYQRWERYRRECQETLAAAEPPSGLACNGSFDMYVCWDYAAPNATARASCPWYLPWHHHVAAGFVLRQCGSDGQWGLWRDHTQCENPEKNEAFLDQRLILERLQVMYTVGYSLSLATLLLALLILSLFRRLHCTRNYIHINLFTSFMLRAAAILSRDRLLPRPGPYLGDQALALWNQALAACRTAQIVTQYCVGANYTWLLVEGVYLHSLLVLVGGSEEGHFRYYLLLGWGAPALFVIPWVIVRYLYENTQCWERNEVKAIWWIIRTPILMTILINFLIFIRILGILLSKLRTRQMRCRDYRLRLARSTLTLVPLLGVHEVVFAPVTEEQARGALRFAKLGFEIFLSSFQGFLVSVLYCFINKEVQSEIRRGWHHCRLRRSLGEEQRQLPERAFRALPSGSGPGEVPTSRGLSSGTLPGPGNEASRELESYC
The series is described as follows: cAMP assay Alternative 1 (CisBio assay), GIPR antagonism. Conditions: for cAMP antagonism % inhib: % inhibition of Emax. In kind it is cell-based. As to the method:
HEK293 cells were cultured in 10% CO2 and 37° C. in Dulbecco's modified Eagle's medium supplemented with 10% fetal bovine serum, 2 mM glutamine, 180 units/ml penicillin, and 45 µg/ml streptomycin. Transient transfection with hGIPR for the CisBio assay from Table 2C was performed by using Lipofectamine 2000.
The in vitro functional activity of compounds towards human GIP receptor can also be determined in HEK-293 cells transiently expressing the receptor. On the day of the assay, cells were resuspended in HBSS buffer (Gibco, 14025-50) supplemented with […] (Gibco, 15630-106), 0.1% Pluronic F-68 (Gibco, 24040-032) and 0.1% casein (Sigma, C4765), and plated in 384-well plates at a density of 5000 cells/well. The GIP peptide analogues of the present disclosure were diluted in HBSS buffer supplemented with 20 mM HEPES, 0.1% pluronic, 0.1% casein and 500 uM IBMX. […] The resulting decrease in intracellular cAMP was quantitatively determined using the CisBio cAMP Dynamic 2 HTRF Assay Kit. The assay is based on a competition between native cAMP produced by cells and cAMP labeled with the dye d2 for binding to a cryptate labeled antibody. The specific signal (i.e. energy transfer signal) is inversely proportional to the concentration of cAMP in the sample.
The cAMP-d2 conjugate and the antibody anti-cAMP-Cryptate, both diluted in lysis buffer provided in the kit, were added to the cells according to the manufacturer's protocol. The resulting competitive assay was incubated for 60 minutes at room temperature, and the signal was detected by using a PerkinElmer Envision® instrument with excitation at 320 nm and emission at 665 nm and 620 nm. The HTRF ratio (emission at 665 nm/620 nm*10,000) is inversely proportional to the amount of cAMP present and is converted to nM cAMP per well using a cAMP standard curve. The dose-response curves were fitted using the non-linear regression analysis (four-logistic parameter equation) in GraphPad Prism, whereby pIC50 values were estimated. To test for agonistic properties at the GIP receptor, compounds were diluted and added to cells as described above and incubated for 30 min at 37° C. The resulting increase in intracellular cAMP was determined using the CisBio cAMP Dynamic 2 HTRF Assay Kit as described above.
The dose-response curves were fitted using the non-linear regression analysis (four-logistic parameter equation) in GraphPad Prism, whereby pIC50 values were estimated.

A short description of series [2]: Physical stability: fibril formation in Thioflavin T (ThT) assay with agitation. The series is classed as physicochemical. Conditions: 25° C., agitation. The method in brief:
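Peptides at 1, 5, 7.5 or 15 mg/ml in 50 mM sodium phosphate pH 7.4 or in water adjusted to pH 7.4 with NaOH, filtered 0.22 μm, with ThT added. Wells held a 3 mm silica bead under 300 rpm orbital agitation at 25° C. Emission at 486 nm tracked continuously; lag time = 10% of transition above baseline.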

Series [3] in a line: Solubility by visual inspection of peptide solutions. The series is classed as physicochemical. In a few lines: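 Peptides dissolved at 1, 5, 7.5 or 15 mg/ml in 50 mM sodium phosphate pH 7.4 or water adjusted to pH 7.4 with NaOH, with gentle mixing. Immediate solubility judged visually as a clear, colorless solution.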

In the case of `CCCC[C@H](NC(=O)C(C)(C)NC(=O)[C@@H](NC(=O)[C@H](CO)NC(=O)[C@H](Cc1ccc(O)cc1)NC(=O)[C@H](CCC(=O)O)NC(=O)[C@H](CO)NC(=O)[C@@H](NC(=O)[C@H](Cc1ccccc1)NC(=O)[C@@H](NC(=O)CNC(=O)[C@@H](N)CCC(=O)O)[C@@H](C)O)[C@@H](C)CC)[C@@H](C)CC)C(=O)N[C@@H](CCC(=O)O)C(=O)N[C@@H](CCCCN)C(=O)N[C@H](C(=O)N[C@@H](CCCCNC(=O)CCCCCCCCCCCCCCC(=O)O)C(=O)N[C@@H](CCC(N)=O)C(=O)N[C@@H](CCC(N)=O)C(=O)N[C@@H](CCC(=O)O)C(=O)N[C@@H](Cc1ccccc1)C(=O)N[C@H](C(=O)N[C@@H](CCC(=O)O)C(=O)N[C@@H](Cc1c[nH]c2ccccc12)C(=O)N[C@@H](CC(C)C)C(=O)N[C@@H](CC(C)C)C(=O)N[C@@H](C)C(=O)N[C@@H](CCC(N)=O)C(=O)N[C@@H](CCCCN)C(=O)N1CCC[C@H]1C(=O)N[C@@H](CO)C(=O)N[C@@H](CO)C(=O)NCC(=O)N[C@@H](C)C(=O)N1CCC[C@H]1C(=O)N1CCC[C@H]1C(=O)N1CCC[C@H]1C(=O)N[C@@H](CO)C(=O)O)C(C)C)[C@@H](C)CC` [AT674] (H-EGTFISEYSI[Aib][Nle]EKIK(C16 diacid)QQEFVEWLLAQKPSSGAPPPS-OH; N-terminus assumed), the “cAMP antagonism % inhib” value in series [1] (Table 2B) was 93%. Besides, the IC50 in series [1] (Table 2B, HEK-293 cells transiently expressing hGIPR, agonist GIP1-42 at EC50, read-out: cAMP antagonism) is 0.447 nM. Moreover, in series [2] (1 mg/ml, TFA, Phosphate (7.4)), the “Avr lag time (h)” value is recorded as “fnd (Fnd = fibrils not detected within experiment time (96 hours) with agitation.)”. Further, the Visual appearance result in series [3] (1 mg/ml, TFA, Phosphate (7.4)) is on record as “Clear”.
In series [1], `CC[C@H](C)[C@H](NC(=O)[C@H](CO)NC(=O)[C@H](Cc1ccc(O)cc1)NC(=O)[C@H](CC(=O)O)NC(=O)[C@H](CO)NC(=O)[C@@H](NC(=O)[C@H](Cc1ccccc1)NC(=O)[C@@H](NC(=O)CNC(=O)CCCC(=O)O)[C@@H](C)O)[C@@H](C)CC)C(=O)N[C@@H](C)C(=O)N[C@@H](CCSC)C(=O)N[C@@H](CC(=O)O)C(=O)N[C@@H](CCCCN)C(=O)N[C@H](C(=O)N[C@@H](CCCCNC(=O)CCCCCCCCCCCCCCC(=O)O)C(=O)N[C@@H](CCC(N)=O)C(=O)N[C@@H](CCC(N)=O)C(=O)N[C@@H](CC(=O)O)C(=O)N[C@@H](Cc1ccccc1)C(=O)N[C@H](C(=O)N[C@@H](CC(N)=O)C(=O)N[C@@H](Cc1c[nH]c2ccccc12)C(=O)N[C@@H](CC(C)C)C(=O)N[C@@H](CC(C)C)C(=O)N[C@@H](C)C(=O)N[C@@H](CCC(N)=O)C(=O)N[C@@H](CCCCN)C(=O)N1CCC[C@H]1C(=O)N[C@@H](CO)C(=O)N[C@@H](CO)C(=O)NCC(=O)N[C@@H](C)C(=O)N1CCC[C@H]1C(=O)N1CCC[C@H]1C(=O)N1CCC[C@H]1C(=O)N[C@@H](CO)C(=O)O)C(C)C)[C@@H](C)CC` [AT677] (Glutaryl-GTFISDYSIAMDKIK(C16 diacid)QQDFVNWLLAQKPSSGAPPPS-OH) gave an IC50 of 0.447 nM. Also, in series [1] (Table 2B), the “cAMP antagonism % inhib” value came out at 93%. The “Avr lag time” value in series [2] (1 mg/ml, Na, MilliQ (8)) is under 24 h; in series [2] (1 mg/ml, TFA, Phosphate (7.4)), 16.5 ± 2.3 h. For the same compound, the Visual appearance entry in series [3] (1 mg/ml, TFA, Phosphate (7.4)) is given as “Clear”.
For `CCCC[C@H](NC(=O)[C@H](C)NC(=O)[C@@H](NC(=O)[C@H](CO)NC(=O)[C@H](Cc1ccc(O)cc1)NC(=O)[C@H](CCC(=O)O)NC(=O)[C@H](CO)NC(=O)[C@@H](NC(=O)[C@H](Cc1ccccc1)NC(=O)[C@@H](NC(=O)CNC(=O)[C@@H](N)CCC(=O)O)[C@@H](C)O)[C@@H](C)CC)[C@@H](C)CC)C(=O)N[C@@H](CCC(=O)O)C(=O)N[C@@H](CCCCN)C(=O)N[C@H](C(=O)N[C@@H](CCCCNC(=O)COCCOCCNC(=O)COCCOCCNC(=O)CC[C@H](NC(=O)CCCCCCCCCCCCCCCCC(=O)O)C(=O)O)C(=O)N[C@@H](CCC(N)=O)C(=O)N[C@@H](CCC(N)=O)C(=O)N[C@@H](CCC(=O)O)C(=O)N[C@@H](Cc1ccccc1)C(=O)N[C@H](C(=O)N[C@@H](CCC(=O)O)C(=O)N[C@@H](Cc1c[nH]c2ccccc12)C(=O)N[C@@H](CC(C)C)C(=O)N[C@@H](CC(C)C)C(=O)N[C@@H](C)C(=O)N[C@@H](CCC(N)=O)C(=O)N[C@@H](CCCCN)C(=O)N1CCC[C@H]1C(=O)N[C@@H](CO)C(=O)N[C@@H](CO)C(=O)NCC(=O)N[C@@H](C)C(=O)N1CCC[C@H]1C(=O)N1CCC[C@H]1C(=O)N1CCC[C@H]1C(=O)N[C@@H](CO)C(=O)O)C(C)C)[C@@H](C)CC` [AT694] (H-EGTFISEYSIA[Nle]EKIK([AEEA-AEEA-γGlu-C18 diacid])QQEFVEWLLAQKPSSGAPPPS-OH; N-terminus assumed), the “cAMP antagonism % inhib” value in series [1] (Table 2B) turned out to be 88%. Besides, the “Avr lag time (h)” value in series [2] (1 mg/ml, TFA, Phosphate (7.4)) is on record as “fnd (Fnd = fibrils not detected within experiment time (96 hours) with agitation.)”. For the same compound, the Visual appearance result in series [3] (1 mg/ml, TFA, Phosphate (7.4)) is “Clear”.
On to `CC[C@H](C)[C@H](NC(=O)[C@H](CCCCN)NC(=O)[C@H](CC(=O)O)NC(=O)[C@H](CCSC)NC(=O)C(C)(C)NC(=O)[C@@H](NC(=O)[C@H](CO)NC(=O)[C@H](Cc1ccc(O)cc1)NC(=O)[C@H](CC(=O)O)NC(=O)[C@H](CO)NC(=O)[C@@H](NC(=O)[C@H](Cc1ccccc1)NC(=O)[C@@H](NC(=O)CNC(=O)[C@@H](N)CCC(=O)O)[C@@H](C)O)[C@@H](C)CC)[C@@H](C)CC)C(=O)N[C@@H](CCCCNC(=O)CCCCCCCCCCCCCCC(=O)O)C(=O)N[C@@H](CCC(N)=O)C(=O)N[C@@H](CCC(N)=O)C(=O)N[C@@H](CC(=O)O)C(=O)N[C@@H](Cc1ccccc1)C(=O)N[C@H](C(=O)N[C@@H](CCC(=O)O)C(=O)N[C@@H](Cc1c[nH]c2ccccc12)C(=O)N[C@@H](CC(C)C)C(=O)N[C@@H](CC(C)C)C(=O)N[C@@H](C)C(=O)N[C@@H](CCC(N)=O)C(=O)N[C@@H](CCCCN)C(=O)N1CCC[C@H]1C(=O)N[C@@H](CO)C(=O)N[C@@H](CO)C(=O)NCC(=O)N[C@@H](C)C(=O)N1CCC[C@H]1C(=O)N1CCC[C@H]1C(=O)N1CCC[C@H]1C(=O)N[C@@H](CO)C(=O)O)C(C)C` [AT665] (H-EGTFISDYSI[Aib]MDKIK(C16 diacid)QQDFVEWLLAQKPSSGAPPPS-OH; N-terminus assumed), for which the IC50 in series [1] was determined as 0.15 nM. Also, the “cAMP antagonism % inhib” value in series [1] (Table 2B) is on record as 88%. The “Avr lag time (h)” value was “fnd (Fnd = fibrils not detected within experiment time (96 hours) with agitation.)” in series [2] (1 mg/ml, TFA, Phosphate (7.4)); “fnd (Fnd = fibrils not detected within experiment time (96 hours) with agitation.)” in series [2] (5 mg/ml, Na, MilliQ (8)); “fnd (Fnd = fibrils not detected within experiment time (96 hours) with agitation.)” in series [2] (7.5 mg/ml, Na, MilliQ (8)); “fnd (Fnd = fibrils not detected within experiment time (96 hours) with agitation.)” in series [2] (15 mg/ml, Na, MilliQ (8)). Moreover, the Visual appearance entry in series [3] (1 mg/ml, TFA, Phosphate (7.4)) is given as “Clear”; in series [3] (7.5 mg/ml, Na, MilliQ (8)) it was “Clear”; in series [3] (15 mg/ml, Na, MilliQ (8)) it was “Clear”.
